# Measurements published in ChEMBL document CHEMBL5120867, “Hernandezine Regulates Proliferation and Autophagy-Induced Apoptosis in Melanoma Cells” (J Nat Prod, 2022).
# Calls of active or inactive are those of the source. No cut-off for these calls is given here.
# Key:
# B16 [1] = test: Induction of cell cycle arrest in mouse B16 cells assessed as accumulation at S phase at 6 uM incubated for 24 hrs by PI staining based flow cytometry analysis (reference value: 33.46 %); assay type: functional
# A-375 [2] = test: Induction of cell cycle arrest in human A-375 cells assessed as accumulation at G0/G1 phase at 6 uM incubated for 24 hrs by PI staining based flow cytometry analysis (reference value: 69.68 %); assay type: functional
# A-375 [3] = test: Induction of autophagy in human A-375 cells assessed as increase in autophagosome with central pulp at 7 uM incubated for 6 to 24 hrs by transmission electron microscopy; assay type: functional, cell-based; conditions: time 6-24 hrs
# B16 [4] = test: Induction of apoptosis in mouse B16 cells assessed as late apoptotic cells measured after 24 hrs by Annexin-V-FITC/PI-staining based flow cytometry (reference value: 5.7 %); assay type: functional
# A-375 [5] = test: Induction of apoptosis in human A-375 cells assessed as early apoptotic cells at 7 uM after 24 hrs by Annexin-V-FITC/PI-staining based flow cytometry (reference value: 1.4 %); assay type: functional
# B16 [6] = test: Induction of cell cycle arrest in mouse B16 cells assessed as accumulation at G0/G1 phase at 5 uM incubated for 24 hrs by PI staining based flow cytometry analysis (reference value: 61.83 %); assay type: functional
# A-375 [7] = test: Induction of apoptosis in human A-375 cells assessed as early apoptotic cells at 6 uM after 24 hrs by Annexin-V-FITC/PI-staining based flow cytometry (reference value: 1.4 %); assay type: functional
# A-375 [8] = test: Cytotoxicity against human A-375 cells assessed as change in cell morphology with loss of […] contacts at 6 to 8 uM incubated for 24 hrs by […] phase contrast microscope analysis; assay type: functional; conditions: dose 6-8 µM
# B16 [9] = test: Induction of cell cycle arrest in mouse B16 cells assessed as accumulation at S phase at 7 uM incubated for 24 hrs by PI staining based flow cytometry analysis (reference value: 33.46 %); assay type: functional
# A-375 [10] = test: Induction of cell cycle arrest in human A-375 cells assessed as accumulation at G2/M phase incubated for 24 hrs in presence of AG490 inhibitor by PI staining based flow cytometry analysis (reference value: 8.87 %); assay type: functional
# B16 [11] = test: Inhibition of colony formation in mouse B16 cells assessed as reduction in volume of colonies at 5 to 7 uM incubated for 24 hrs followed by replacement with fresh medium and measured after 14 days by crystal violet staining based analysis; assay type: functional, cell-based; conditions: dose 5-7 µM
# B16 [12] = test: Inhibition of autophagy in mouse B16 cells harbouring mCherry-EGFP-LC3 assessed as increase in number of autophagosomes at 6 uM for 8 to 24 hrs by laser scanning confocal microscopic analysis; assay type: functional, cell-based; conditions: time 8-24 hrs
# A-375 [13] = test: Upregulation of p21 accumulation in human A-375 cells at 6 to 8 uM measured after 12 to 24 hrs by western blot assay; assay type: functional, cell-based; conditions: dose 6-8 µM, time 12-24 hrs
# B16 [14] = test: Inhibition of autophagy in mouse B16 cells harbouring mCherry-EGFP-LC3 assessed as increase in proportion of autolysosomes at 6 uM for 8 to 24 hrs by laser scanning confocal microscopic analysis; assay type: functional, cell-based; conditions: time 8-24 hrs
# B16 [15] = test: Induction of apoptosis in mouse B16 cells assessed as early apoptotic cells at 5 uM measured after 24 hrs by Annexin-V-FITC/PI-staining based flow cytometry (reference value: 0.5 %); assay type: functional
# B16 [16] = test: Induction of apoptosis in mouse B16 cells assessed as early apoptotic cells at 7 uM measured after 24 hrs by Annexin-V-FITC/PI-staining based flow cytometry (reference value: 0.5 %); assay type: functional
# A-375 [17] = test: Induction of cell cycle arrest in human A-375 cells assessed as accumulation at S phase at 8 uM incubated for 24 hrs by PI staining based flow cytometry analysis (reference value: 28.83 %); assay type: functional
# HepG2 = test: Cytotoxicity against human HepG2 cells assessed as reduction in cell viability by MTT assay; assay type: functional, cell-based
# A-375 [18] = test: Cytotoxicity against human A-375 cells assessed as decrease in number of adherent cells at 6 to 8 uM incubated for 24 hrs by […] phase contrast microscope analysis; assay type: functional, cell-based; conditions: dose 6-8 µM
# B16 [19] = test: Cytotoxicity against mouse B16 cells assessed as reduction in cell viability incubated for 24 hrs by MTT assay; assay type: functional, cell-based; conditions: B16, 24 h
# B16 [20] = test: Induction of apoptosis in mouse B16 cells assessed as chromatin condensation at 5 to 7 uM incubated for 24 hrs by Hoechst 33258 staining based fluorescence microscopy; assay type: functional, cell-based; conditions: dose 5-7 µM
# A-375 [21] = test: Induction of apoptosis in human A-375 cells assessed as […] of Bax/Bcl-2 protein level at 6 to 8 uM incubated for 24 hrs by Western blot analysis; assay type: functional, cell-based; conditions: dose 6-8 µM
# A-375 [22] = test: Inhibition of colony formation in human A-375 cells assessed as reduction in volume of colonies at 6 to 8 uM incubated for 24 hrs followed by replacement with fresh medium and measured after 14 days by crystal violet staining based analysis; assay type: functional, cell-based; conditions: dose 6-8 µM
# A-375 [23] = test: Induction of autophagy in human A-375 cells assessed as increase in phosphorylated ACC at 7 uM incubated for 6 to 24 hrs by Western blotting analysis; assay type: functional, cell-based; conditions: time 6-24 hrs
# A-375 [24] = test: Induction of cell cycle arrest in human A-375 cells assessed as accumulation at G0/G1 phase at 8 uM incubated for 24 hrs by PI staining based flow cytometry analysis (reference value: 69.68 %); assay type: functional
# B16 [25] = test: Induction of apoptosis in mouse B16 cells assessed as late apoptotic cells preincubated for 2 hrs with 3-MA followed by compound addition and measured after 24 hrs by Annexin-V-FITC/PI-staining based flow cytometry (reference value: 5.7 %); assay type: functional
# B16 [26] = test: Induction of cell cycle arrest in mouse B16 cells assessed as accumulation at G0/G1 phase incubated for 24 hrs in presence of AG490 by PI staining based flow cytometry analysis (reference value: 56.59 %); assay type: functional
# B16 [27] = test: Induction of apoptosis in mouse B16 cells assessed as early apoptotic cells at 6 uM measured after 24 hrs by Annexin-V-FITC/PI-staining based flow cytometry (reference value: 0.5 %); assay type: functional
# A-375 [28] = test: Induction of apoptosis in human A-375 cells assessed as increase in cleaved caspase 3 expression at 6 to 8 uM incubated for 24 hrs by Western blot analysis; assay type: functional, cell-based; conditions: dose 6-8 µM
# A-375 [29] = test: Upregulation of p27 accumulation in human A-375 cells at 6 to 8 uM measured after 12 to 24 hrs by western blot assay; assay type: functional, cell-based; conditions: dose 6-8 µM, time 12-24 hrs
# B16 [30] = test: Induction of apoptosis in mouse B16 cells assessed as early apoptotic cells preincubated for 2 hrs with 3-MA followed by compound addition and measured after 24 hrs by Annexin-V-FITC/PI-staining based flow cytometry (reference value: 0.9 %); assay type: functional
# A-375 [31] = test: Downregulation of Cyclin D1 protein expression in human A-375 cells at 6 to 8 uM measured after 12 to 24 hrs by western blot assay; assay type: functional, cell-based; conditions: dose 6-8 µM, time 12-24 hrs
# A549 = test: Cytotoxicity against human A549 cells assessed as reduction in cell viability by MTT assay; assay type: functional, cell-based
# B16 [32] = test: Induction of cell cycle arrest in mouse B16 cells assessed as accumulation at G0/G1 phase incubated for 24 hrs by PI staining based flow cytometry analysis (reference value: 56.59 %); assay type: functional
# A-375 [33] = test: Induction of cell cycle arrest in human A-375 cells assessed as accumulation at G0/G1 phase incubated for 24 hrs in presence of AG490 by PI staining based flow cytometry analysis (reference value: 56.69 %); assay type: functional
structure (smiles),measurement,setting,value
COc1ccc2cc1Oc1ccc(cc1)C[C@H]1c3cc(c(OC)cc3CCN1C)Oc1c(OC)c(OC)c(OC)c3c1[C@H](C2)N(C)CC3 [HERNANDEZINE],Activity,B16 [1],23.84%
same,Activity,A-375 [2],76.28%
same,Activity,A-375 [3],Active
same,Activity,B16 [4],20.6%
same,Activity,A-375 [5],9.4%
same,Activity,B16 [6],72%
same,Activity,A-375 [7],4.1%
same,Activity,A-375 [8],Active
same,Activity,B16 [9],20.64%
same,Activity,A-375 [10],4.78%
same,inhibition,B16 [11],Active
same,inhibition,B16 [12],Active
same,Activity,A-375 [13],Active
same,inhibition,B16 [14],Active
same,Activity,B16 [15],4.6%
same,Activity,B16 [16],16.4%
same,Activity,A-375 [17],19.2%
same,IC50,HepG2,7.42 µM
same,Activity,A-375 [18],Active
same,IC50,B16 [19],5.9 µM
same,Activity,B16 [20],Active
same,Activity,A-375 [21],Active
same,inhibition,A-375 [22],Active
same,Activity,A-375 [23],Active
same,Activity,A-375 [24],79.56%
same,Activity,B16 [25],14.5%
same,Activity,B16 [26],84.61%
same,Activity,B16 [27],12.9%
same,Activity,A-375 [28],Active
same,Activity,A-375 [29],Active
same,Activity,B16 [30],14.1%
same,Activity,A-375 [31],Active
same,IC50,A549,7.59 µM
same,Activity,B16 [32],78.59%
same,Activity,A-375 [33],70.87%
